We go through twelve compounds from ChEMBL document CHEMBL1201862, “PubChem BioAssay data set” (2004).

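Briefly, cells in 96-well plates were exposed to five compound concentrations for 48 h, and endpoints were estimated by linear interpolation. The concentration for 50% growth inhibition is given as GI50.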 The source made the active and inactive calls. Cut-off read from the data, not from the text of the source: active = GI50 up to about 1.1 µM and inactive = higher.

Test systems include EKVX; HOP-62; RXF 393; M14; K562; OVCAR-5; SF-295; LOX IMVI; UACC-257; DLD-1; OVCAR-8; ACHN; SK-MEL-28; SK-OV-3; TK-10; CCRF-CEM; DU-145; T47D; MDA-MB-435; MCF7.
What all share (experiment): NCI tumour cell line growth inhibition, 48 h

As for `O=C(COc1ccccc1)NS(=O)(=O)c1ccccc1`, the GI50 with EKVX, with HOP-62, with RXF 393, in the assay with M14, in the assay on K562 and in the assay on OVCAR-5 was > 100 µM (inactive) in each case. The GI50 with SF-295, in the assay on LOX IMVI, with UACC-257, with DLD-1, in the assay with OVCAR-8 and in the assay with ACHN was > 100 µM (inactive) in each case. Further, the GI50 in the assay on SK-MEL-28, with SK-OV-3, in the assay with TK-10 and in the assay on CCRF-CEM was > 100 µM (inactive) in each case.

Turning to `CC(=O)NC1=C(C)C(=O)c2c(nc3n2CCC3OC(=O)CCl)C1=O` (stereo not given), the GI50 was 8.57 µM (inactive) with EKVX; 17.1 µM (inactive) in the assay on HOP-62; 5.43 µM (inactive) with RXF 393; 18.2 µM (inactive) with M14; 2.19 µM (inactive) with K562; 12.9 µM (inactive) with OVCAR-5. In addition, the GI50 with SF-295 was 16.1 µM (inactive); in the assay on LOX IMVI it was 4.15 µM (inactive); with UACC-257, 12.7 µM (inactive); in the assay on DLD-1 it was 12.9 µM (inactive); in the assay on OVCAR-8 it was 4.1 µM (inactive); in the assay with ACHN it was 20.7 µM (inactive). Besides, the GI50 in the assay with SK-MEL-28 was 17.2 µM (inactive); in the assay on SK-OV-3 it was 16.1 µM (inactive); with TK-10, 21 µM (inactive); in the assay on CCRF-CEM it was 1.45 µM (inactive).

As to `O=C1CSc2cc([N+](=O)[O-])ccc2N1`, the GI50 with EKVX, with HOP-62, in the assay with RXF 393, with M14, in the assay on K562 and in the assay with OVCAR-5 was > 100 µM (inactive) throughout. The GI50 with SF-295, in the assay on LOX IMVI, in the assay with UACC-257, with DLD-1, in the assay on OVCAR-8 and in the assay with ACHN was > 100 µM (inactive) each time. Moreover, the GI50 in the assay on SK-MEL-28, with SK-OV-3, in the assay on TK-10 and in the assay with CCRF-CEM was > 100 µM (inactive) throughout.

For `Nc1c(S(=O)(=O)c2ccccc2)c2nc3ccccc3nc2n2c1nc1ccccc12`, the GI50 is > 68.5 µM (inactive) with EKVX; 19.4 µM (inactive) with HOP-62; > 100 µM (inactive) with RXF 393; 16.2 µM (inactive) with M14; 22.4 µM (inactive) in the assay with K562; > 100 µM (inactive) with OVCAR-5. Further, the GI50 in the assay on SF-295 is > 34.7 µM (inactive); with LOX IMVI, > 60.8 µM (inactive); in the assay on UACC-257 it was > 51.5 µM (inactive); in the assay on DLD-1 it was > 86.1 µM (inactive); in the assay on OVCAR-8 it was 20.1 µM (inactive); in the assay on ACHN, > 64.4 µM (inactive). Besides, the GI50 in the assay on SK-MEL-28 is 10.4 µM (inactive); with SK-OV-3 it was > 100 µM (inactive); in the assay with TK-10 it was > 100 µM (inactive); in the assay on CCRF-CEM, > 39.2 µM (inactive).

Consider `CCC(=O)c1c(NOC2OCC(OC(C)=O)C(OC(C)=O)C2OC(C)=O)nc(OC)n(C)c1=O` (stereo not given), for which the GI50 with EKVX, in the assay with HOP-62, in the assay with RXF 393, with M14, in the assay with K562 and in the assay with OVCAR-5 was > 100 µM (inactive) in each case. Further, the GI50 with SF-295, in the assay on LOX IMVI, in the assay on UACC-257, in the assay on DLD-1, in the assay with OVCAR-8 and in the assay with ACHN was > 100 µM (inactive) throughout. Moreover, the GI50 in the assay with SK-MEL-28, in the assay on SK-OV-3, in the assay with TK-10 and with CCRF-CEM was > 100 µM (inactive) each time.

Consider `CCCCCCC1=NOC(C(c2cc[nH]c2)N(C)[C@H](C(=O)OC)C(C)C)C1` (stereo not given in full), for which the GI50 with EKVX is 19.8 µM (inactive); in the assay on HOP-62, > 100 µM (inactive); in the assay with RXF 393, 52.7 µM (inactive); in the assay on M14 it was 51.8 µM (inactive); with K562 it was 39.2 µM (inactive); with OVCAR-5, > 100 µM (inactive). Further, the GI50 with SF-295 was 47.1 µM (inactive); in the assay with LOX IMVI, 26.1 µM (inactive); with UACC-257, 37.7 µM (inactive); in the assay on DLD-1 it was 34.1 µM (inactive); with OVCAR-8 it was 42.2 µM (inactive); in the assay with ACHN, 34.4 µM (inactive). Moreover, the GI50 in the assay with SK-MEL-28 was 75 µM (inactive); in the assay with SK-OV-3, > 100 µM (inactive); in the assay with TK-10, 35.4 µM (inactive); in the assay with CCRF-CEM, 16.7 µM (inactive).

In the case of `CC1CC(C)CC(C)C(O)/C(C#N)=C/C=C/CC(C2CCCC2C(=O)O)OC(=O)CC(O)C(C)C1` (stereo not given), the GI50 was 0.064 µM (active) in the assay on EKVX; 0.111 µM (active) in the assay on DU-145; 0.0148 µM (active) with HOP-62; < 0.01 µM (active) with RXF 393; < 0.0121 µM (active) in the assay with M14; < 0.01 µM (active) in the assay on OVCAR-5. The GI50 in the assay with SF-295 is 0.0303 µM (active); in the assay with LOX IMVI it was < 0.0109 µM (active); in the assay on T47D, < 0.01 µM (active); with UACC-257, 0.0154 µM (active); in the assay with DLD-1 it was < 0.0122 µM (active); with OVCAR-8, 0.0192 µM (active). Besides, the GI50 was < 0.0194 µM (active) with ACHN; < 0.01 µM (active) in the assay on MDA-MB-435; < 0.0111 µM (active) with SK-MEL-28; 0.0161 µM (active) with SK-OV-3; 0.0301 µM (active) in the assay with TK-10; 0.0102 µM (active) in the assay on MCF7. In the assay with CCRF-CEM, the GI50 was 0.0118 µM (active).

In the case of `COC(=O)c1cccn1C(=O)n1cccc1`, the GI50 in the assay with EKVX, with HOP-62, in the assay on RXF 393, in the assay with M14, in the assay with K562 and with OVCAR-5 was > 100 µM (inactive) each time. Besides, the GI50 in the assay with SF-295, with LOX IMVI, in the assay with UACC-257, with DLD-1, with OVCAR-8 and in the assay with ACHN was > 100 µM (inactive) each time. Besides, the GI50 in the assay on SK-MEL-28, in the assay on SK-OV-3, in the assay on TK-10 and in the assay on CCRF-CEM was > 100 µM (inactive) in each case.

On to `O=C1C2C(C(=O)N1c1ccccc1)C1(c3ccccc3)OC2(c2ccccc2)c2ccccc21` (stereo not given), for which the GI50 with EKVX is > 100 µM (inactive); with HOP-62, > 100 µM (inactive); with RXF 393 it was > 100 µM (inactive); with M14, > 100 µM (inactive); in the assay on K562, > 100 µM (inactive); in the assay with OVCAR-5, 4.14 µM (inactive). Also, the GI50 in the assay with SF-295, in the assay on LOX IMVI, in the assay on UACC-257, in the assay with DLD-1, in the assay with OVCAR-8 and in the assay on ACHN was > 100 µM (inactive) in each case. In addition, the GI50 with SK-MEL-28, in the assay on SK-OV-3, in the assay on TK-10 and with CCRF-CEM was > 100 µM (inactive) throughout.

Regarding `O=C(O)C[C@@H](Cl)[C@H](NC(=O)OCc1ccccc1)C(=O)O`, the GI50 in the assay with EKVX, in the assay on HOP-62, in the assay on RXF 393, in the assay on M14, with K562 and in the assay with OVCAR-5 was > 100 µM (inactive) throughout. For the same compound, the GI50 in the assay on SF-295, in the assay on LOX IMVI, in the assay with UACC-257, with DLD-1, with OVCAR-8 and in the assay on ACHN was > 100 µM (inactive) in each case. The GI50 in the assay with SK-MEL-28, in the assay on SK-OV-3, in the assay on TK-10 and with CCRF-CEM was > 100 µM (inactive) throughout.

On to `COC(=O)C1CCC2(C)[C@H](CCC3O[C@]32C)[C@@]1(C)CC(=O)c1ccoc1` (stereo not given in full), for which the GI50 was 18.7 µM (inactive) in the assay with EKVX; > 100 µM (inactive) with HOP-62; > 100 µM (inactive) in the assay with RXF 393; > 100 µM (inactive) in the assay with M14; 46.1 µM (inactive) with K562; > 100 µM (inactive) in the assay on OVCAR-5. The GI50 is > 100 µM (inactive) in the assay on SF-295; > 100 µM (inactive) in the assay with LOX IMVI; > 100 µM (inactive) in the assay with UACC-257; > 100 µM (inactive) in the assay with DLD-1; > 100 µM (inactive) with OVCAR-8; 34.4 µM (inactive) in the assay on ACHN. Further, the GI50 in the assay on SK-MEL-28 was > 100 µM (inactive); in the assay on SK-OV-3, 0.0406 µM (active); in the assay with TK-10, 36.9 µM (inactive); in the assay on CCRF-CEM, 31.1 µM (inactive).

As to `COC(=O)C1CC(=O)O[C@H]1c1ccc(OC)c(OC)c1` (stereo not given in full), the GI50 in the assay on EKVX, in the assay on HOP-62, in the assay on RXF 393, with M14, in the assay with K562 and in the assay with OVCAR-5 was > 100 µM (inactive) each time. Besides, the GI50 in the assay with SF-295, in the assay with LOX IMVI, in the assay on UACC-257, in the assay with DLD-1, with OVCAR-8 and in the assay with ACHN was > 100 µM (inactive) throughout. Besides, the GI50 with SK-MEL-28, in the assay with SK-OV-3, in the assay with TK-10 and in the assay on CCRF-CEM was > 100 µM (inactive) in each case.
